The source of these data is patent publication US20100068197A1, “PHARMACEUTICAL COMPOUNDS AS INHIBITORS OF CELL PROLIFERATION AND THE USE THEREOF” (Myriad Pharmaceuticals, Inc., priority 2008, published 2010).

Assay [1] deals with P388 murine leukemia cell line. The experiment in a line: P388 cytotoxicity, cellular viability by ATP-Lite. The note with it: compound concentration required to inhibit growth by 50%, intracellular ATP. The format is cell-based. The method, then: A P388 murine leukemia cell line was obtained from NCI, Frederick, Md. P388 cells were cultured in RPMI-1640 supplemented with 10% fetal bovine serum, 2 mM Glutamax, 1 mM sodium pyruvate, 0.1 mM non-essential amino acids and 10 mM HEPES. Cells were grown at 37° C. in a humidified 5% CO2 atmosphere. Exponentially growing P388 cells were plated at 5,000 cells/well in a 96-well flat-bottomed microtiter plate (Corning, Costar #3595). […] Cellular viability was determined 72 hours later by measuring intracellular ATP with ATP-Lite assay system. The effect of compounds on cell viability was calculated by comparing the ATP levels of cells exposed to test compound with those of cells exposed to DMSO. A semi-log plot of relative ATP levels versus compound concentration was used to calculate the compound concentration required to inhibit growth by 50% (IC50). Data was analyzed by Prism software (GraphPad; San Diego, Calif.) by fitting it to a sigmoidal dose response curve.

Assay [2] relates to P388/ADR cell lines (overexpress the multidrug resistance pump MDR-1). The assay is described as follows: Multidrug resistant cell assay, cell viability by ATP-lite. The class given is cell-based, murine. The text has this: Cytotoxicity of compounds in multidrug resistant cells can be determined by administering compounds to cell lines that overexpress the multidrug resistance pump MDR-1 and determining the viability of the cell lines. P388/ADR cell lines are known to overexpress the multidrug resistance pump MDR-1 (also known as P-glycoprotein-1; Pgp-1).
P388/ADR cell lines are obtained from American Type Culture Collection (Manassas, Va.) and maintained in RPMI-1640 media supplemented with 10% FCS, 10 units/mL penicillin and streptomycin, 2 mM Glutamax and 1 mM sodium pyruvate (Invitrogen Corporation, Carlsbad, Calif.). For compound testing, cells are plated in 96 well dishes at a concentration of 1.5×10^4 cells/well. Cells are allowed to adhere to the plate overnight and then incubated with compounds at final concentrations ranging from 0.13 nM to 10 μM for 72 hours. Cell viability is then assessed using the ATP-lite reagent (Perkin Elmer, Foster City, Calif.). Plates are read on a Wallac Topcount luminescence reader (Perkin Elmer, Foster City, Calif.) and the results graphed in Prism software (Graphpad Software, Inc., San Diego, Calif.). Non-linear regression with variable slope analysis is performed to obtain IC50 concentration values.

Where [3] appears, read: Mus musculus, 72 h, multidrug resistant cells overexpressing MDR-1.

As usually defined, the IC50 is the concentration at which inhibition is half-maximal. A higher IC50 goes with lower potency.

The structures appear in SMILES notation.

On to `COc1ccc(N(C)c2nc(NCCOCCOCCN)nc3ccccc23)cc1` [Example 3, N^2-{2-[2-(2-Amino-ethoxy)-ethoxy]-ethyl}-N^4-(4-methoxy-phenyl)-N^4-methyl-quinazoline-2,4-diamine], for which the half-maximal inhibitory concentration (IC50) in assay [1] (Mus musculus, P388, 72 h) worked out at 1400 nM; in assay [2] (setting [3]), 2000 nM.

Consider `COc1ccc(N(C)c2nc(N3CCNCC3)nc3ccccc23)cc1` [Example 9, (4-Methoxy-phenyl)-methyl-(2-piperazin-1-yl-quinazolin-4-yl)-amine], for which the IC50 in assay [1] (Mus musculus, P388, 72 h) came to 2600 nM; in assay [2] (setting [3]), 3200 nM.

As to `COC(=O)NCCNc1nc(N(C)c2ccc(OC)c(OC)c2)c2ccccc2n1` [Example 21, (2-{4-[(3,4-Dimethoxy-phenyl)-methyl-amino]-quinazolin-2-ylamino}-ethyl)-carbamic acid methyl ester], the IC50 in assay [1] (Mus musculus, P388, 72 h) is 120 nM; in assay [1] (72 hours), 64 nM; in assay [2] (setting [3]) it was 190 nM; in assay [2] (multidrug resistant cells overexpressing MDR-1, 72 hours), 150 nM.

As for `COc1ccc(N(C)c2nc(CN(CCCO)Cc3nc(N(C)c4ccc(OC)cc4)c4ccccc4n3)nc3ccccc23)cc1` [Example 54, 3-(Bis-{4-[(4-methoxy-phenyl)-methyl-amino]-quinazolin-2-ylmethyl}-amino)-propan-1-ol], the IC50 in assay [1] (Mus musculus, P388, 72 h) is 64 nM; in assay [2] (setting [3]), 76 nM.

As for `COc1ccc(N(C)c2nc(NCCNC(=O)OCc3ccccc3)nc3ccc(OC)cc23)cc1` [Example 17, (2-{6-Methoxy-4-[(4-methoxy-phenyl)-methyl-amino]-quinazolin-2-ylamino}-ethyl)-carbamic acid benzyl ester], the IC50 in assay [1] (Mus musculus, P388, 72 h) worked out at 4500 nM; in assay [1] (72 hours) it was 3000 nM; in assay [2] (setting [3]), 8500 nM.

As for `COc1ccc(N(C)c2nc(NCC(O)CNc3nc(N(C)c4ccc(OC)cc4)c4ccccc4n3)nc3ccccc23)cc1` [Example 42, 1,3-Bis-{4-[(4-methoxy-phenyl)-methyl-amino]-quinazolin-2-ylamino}-propan-2-ol], the IC50 in assay [1] (Mus musculus, P388, 72 h) came to 680 nM; in assay [2] (setting [3]) it was 880 nM.

With `COc1ccc(N(C)c2nc(N[C@@H](CO)Cc3ccccc3)nc3ccccc23)cc1` [Example 25, (R)-2-{4-[(4-Methoxy-phenyl)-methyl-amino]-quinazolin-2-ylamino}-3-phenyl-propan-1-ol], the IC50 is 1800 nM in assay [1] (Mus musculus, P388, 72 h) and 1800 nM in assay [2] (setting [3]).

Turning to `COc1ccc(N(C)c2nc(CNS(=O)(=O)c3ccc(OC)cc3)nc3ccccc23)cc1` [Example 45, 4-Methoxy-N-{4-[(4-methoxy-phenyl)-methyl-amino]-quinazolin-2-ylmethyl}-benzenesulfonamide], the IC50 in assay [1] (Mus musculus, P388, 72 h) came out at 1700 nM; in assay [2] (setting [3]), 1800 nM.

Consider `COc1ccc(N(C)c2nc(N[C@@H](C)C(=O)O)nc3ccccc23)cc1` [Example 36, (S)-2-{4-[(4-Methoxy-phenyl)-methyl-amino]-quinazolin-2-ylamino}-propionic acid], for which the IC50 in assay [1] (Mus musculus, P388, 72 h) worked out at 780 nM; in assay [2] (setting [3]) it was 700 nM.

For `COc1ccc(N(C)c2nc(CNC(=O)[C@@H](C)NC(=O)OC(C)(C)C)nc3ccccc23)cc1` [Example 53, [(R)-1-({4-[(4-Methoxy-phenyl)-methyl-amino]-quinazolin-2-ylmethyl}-carbamoyl)-ethyl]-carbamic acid tert-butyl ester], the IC50 in assay [1] (Mus musculus, P388, 72 h) amounted to 457 nM; in assay [2] (setting [3]), 680 nM.

As for `COc1ccc(N(C)c2nc(CNC(=O)OC(COC(C)=O)COC(C)=O)nc3ccccc23)cc1` [Example 55, Acetic acid 3-acetoxy-2-{4-[(4-methoxy-phenyl)-methyl-amino]-quinazolin-2-ylmethylcarbamoyloxy}-propyl ester], the IC50 in assay [1] (Mus musculus, P388, 72 h) turned out to be 330 nM; in assay [2] (setting [3]), 450 nM.

`COc1ccc(N(C)c2nc(NCCNC(C)=O)nc3ccccc23)cc1OC` [Example 20, N-(2-{4-[(3,4-Dimethoxy-phenyl)-methyl-amino]-quinazolin-2-ylamino}-ethyl)-acetamide]: the IC50 in assay [1] (Mus musculus, P388, 72 h) was 1700 nM; in assay [1] (72 hours), 1100 nM; in assay [2] (setting [3]) it was 9400 nM.

As for `COc1ccc(N(C)c2nc(NCCOP(=O)(O)OC(C)(C)C)nc3ccccc23)cc1` [Example 12, Phosphoric acid tent-butyl ester 2-{4-[(4-methoxy-phenyl)-methyl-amino]-quinazolin-2-ylamino}-ethyl ester], the IC50 in assay [1] (Mus musculus, P388, 72 h) amounted to 3100 nM; in assay [2] (setting [3]), 7800 nM.

Consider `CCOC(=O)C(Nc1nc(N(C)c2ccc(OC)cc2)c2ccccc2n1)C(C)C` (stereo not shown) [Example 32, 2-{4-[(4-Methoxy-phenyl)-methyl-amino]-quinazolin-2-ylamino}-3-methyl-butyric acid ethyl ester], for which the IC50 in assay [1] (Mus musculus, P388, 72 h) turned out to be 240 nM; in assay [2] (setting [3]), 300 nM.

`COCCOCCOCCOc1nc(N(C)c2ccc(OC)cc2)c2ccccc2n1` [Example 2, (2-{2-[2-(2-Methoxy-ethoxy)-ethoxy]-ethoxy}-quinazolin-4-yl)-(4-methoxy-phenyl)-methyl-amine]: the 50% inhibitory concentration (IC50) in assay [1] (Mus musculus, P388, 72 h) is 65 nM; in assay [2] (setting [3]), 74 nM.

On to `COc1ccc(N(C)c2nc(N[C@@H](C)[C@H](O)c3ccccc3)nc3ccccc23)cc1` [Example 24, (1R,2S)-2-{4-[(4-Methoxy-phenyl)-methyl-amino]-quinazolin-2-ylamino}-1-phenyl-propan-1-ol], for which the concentration for half-maximal inhibition (IC50) in assay [1] (Mus musculus, P388, 72 h) is 1600 nM; in assay [2] (setting [3]) it was 1700 nM.

Take `COC(=O)NCCNc1nc(N(C)c2ccc(OC)cc2)c2cc(OC)ccc2n1` [Example 26, (2-{6-Methoxy-4-[(4-methoxy-phenyl)-methyl-amino]-quinazolin-2-ylamino}-ethyl)-carbamic acid methyl ester]: the half-maximal inhibitory concentration (IC50) in assay [1] (Mus musculus, P388, 72 h) was found to be 7200 nM; in assay [2] (setting [3]) it was 7400 nM.

For `COCCOCCOC(=O)OCCNc1nc(N(C)c2ccc(OC)cc2)c2ccccc2n1` [Example 8, Carbonic acid 2-(2-methoxy-ethoxy)-ethyl ester 2-{4-[(4-methoxy-phenyl)-methyl-amino]-quinazolin-2-ylamino}-ethyl ester], the IC50 in assay [1] (Mus musculus, P388, 72 h) amounted to 25 nM; in assay [2] (setting [3]), 30 nM.
